Among the test systems are SNB-75 CNS; PC-3 prostate; SN12C renal; SK-MEL-2 melanoma; 786-0 renal; M14 melanoma; MCF7 breast; TK-10 renal; SK-MEL-28 melanoma; SR leukemia.
Experiment in all cases: growth of human tumour cells (NCI), 48 h

SMILES strings stand for the structures. Values joined by “and” are separate entries in the source; they are usually repeats but may differ in a detail not shown here. Equal values may be shown once.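 Compound exposure: 48 hours, 5 concentrations, 96-well plates. GI50 = concentration required for 50% inhibition of growth. TGI: concentration producing complete growth inhibition.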

Regarding `C=C1C(=O)O[C@@H]2C[C@@]3(C)CCC[C@H](C)C3=C[C@H]12` (tested in a mixture with another compound), the TGI came to 5.6 µM with SNB-75 CNS; 10 µM in the assay on PC-3 prostate; 3.44 µM with SN12C renal; 5.41 µM with SK-MEL-2 melanoma; 2.83 µM in the assay on 786-0 renal; 2.75 µM in the assay with M14 melanoma. The TGI with MCF7 breast worked out at 10.7 µM; with TK-10 renal it was 6.92 µM; with SK-MEL-28 melanoma, 5.13 µM; in the assay with SR leukemia, 3.26 µM.
On to `Oc1ccc(CCNc2nc3ccccc3c3[nH]c4ccccc4c23)cc1O`, for which the GI50 was 15.9 µM in the assay with SNB-75 CNS; 1.51 µM in the assay on PC-3 prostate; 1.94 µM in the assay with SN12C renal; 1.73 µM in the assay with SK-MEL-2 melanoma; 1.62 µM in the assay on 786-0 renal; 2.62 µM in the assay with M14 melanoma. In addition, the GI50 in the assay on MCF7 breast is 3.13 µM; in the assay on TK-10 renal, 5.37 µM; with SK-MEL-28 melanoma it was 5.85 µM; with SR leukemia, 1.92 µM. For the same compound, the TGI in the assay with SNB-75 CNS was 33.2 µM; with PC-3 prostate it was 3.63 µM; in the assay with SN12C renal it was 7.29 µM; in the assay on SK-MEL-2 melanoma, 3.59 µM; in the assay with 786-0 renal, 2.98 µM; in the assay on M14 melanoma it was 7.28 µM. Further, the TGI with TK-10 renal worked out at 19 µM; with SK-MEL-28 melanoma it was 18.3 µM; in the assay on SR leukemia it was 5.74 µM.
With `COc1cc(-c2csc(NC(=O)Nc3ccc(Cl)cc3)n2)cc(OC)c1OC`, the GI50 in the assay with SNB-75 CNS is 2.12 µM; in the assay on PC-3 prostate it was 2.4 µM; with SN12C renal it was 3.18 µM; with SK-MEL-2 melanoma, 2.18 µM; in the assay on 786-0 renal, 2.35 µM; in the assay with M14 melanoma, 2.27 µM. Further, the GI50 with MCF7 breast was 2.53 µM; in the assay on TK-10 renal, 3.25 µM; with SK-MEL-28 melanoma, 2.44 µM; in the assay on SR leukemia, 4.36 µM. Also, the TGI in the assay on SNB-75 CNS was determined as 8.39 µM; in the assay with PC-3 prostate it was 8.39 µM; with SN12C renal it was 13.7 µM; with SK-MEL-2 melanoma, 5.04 µM; in the assay on 786-0 renal it was 7.83 µM; with M14 melanoma it was 5.92 µM. For the same compound, the TGI is 10.7 µM in the assay with MCF7 breast, 14.9 µM in the assay on TK-10 renal, 7.12 µM in the assay on SK-MEL-28 melanoma and greater than 100 µM in the assay with SR leukemia.
Consider `c1ccc2[nH]c(-c3ccc(Nc4nc(N5CCCC5)nc5[nH]ncc45)cc3)nc2c1`, for which the GI50 in the assay on SNB-75 CNS is 1.28 µM; with PC-3 prostate it was 1.61 µM; with SN12C renal, 1.67 µM; in the assay with SK-MEL-2 melanoma, 1.71 µM; with 786-0 renal, 0.17 µM; with M14 melanoma it was 0.403 µM. Besides, the GI50 in the assay with MCF7 breast is 0.213 µM; with TK-10 renal, 1.91 µM; in the assay with SK-MEL-28 melanoma, 0.181 µM; in the assay with SR leukemia, 0.254 µM. The TGI worked out at 2.76 µM with SNB-75 CNS; 4.71 µM in the assay on PC-3 prostate; 4.15 µM with SN12C renal; 3.37 µM with SK-MEL-2 melanoma; 0.347 µM in the assay on 786-0 renal; 1.62 µM in the assay with M14 melanoma. Also, the TGI with MCF7 breast was 0.619 µM; with TK-10 renal, 3.53 µM; in the assay with SK-MEL-28 melanoma, 0.338 µM; with SR leukemia, 0.87 µM.
Regarding `CC[C@@H]1C(=O)N(C)c2cnc(Nc3ccc(C(=O)NC4CCC(N5CCN(CC6CC6)CC5)CC4)cc3OC)nc2N1C(C)C` (stereo not given in full), the GI50 with SNB-75 CNS is 0.0296 µM and 0.0344 µM; in the assay on PC-3 prostate, 0.0287 µM and 0.0366 µM; in the assay on SN12C renal it was 0.0917 µM and 0.173 µM; with SK-MEL-2 melanoma it was 0.0221 µM and 0.0351 µM; with 786-0 renal, 0.0614 µM and 0.0721 µM; in the assay on M14 melanoma, 0.00963 µM and 0.0349 µM. Moreover, the GI50 with MCF7 breast is 0.00507 µM and < 0.01 µM; in the assay with TK-10 renal, 0.128 µM and 0.0776 µM; in the assay with SK-MEL-28 melanoma, 0.0737 µM and 0.0669 µM; with SR leukemia it was 0.0134 µM and 0.0123 µM. Moreover, the TGI in the assay on SNB-75 CNS was 6.73 µM; in the assay with PC-3 prostate, > 10 µM and 17.7 µM; in the assay on SN12C renal, > 10 µM and 15.1 µM; in the assay with SK-MEL-2 melanoma, 1.97 µM and 2.27 µM; in the assay on 786-0 renal, > 3.29 µM and 1.28 µM; in the assay on M14 melanoma, > 3.81 µM and 2.39 µM. Further, the TGI was 2.01 µM and 2.62 µM in the assay on MCF7 breast; > 10 µM and 8.62 µM with TK-10 renal; 2.64 µM and 3.16 µM in the assay on SK-MEL-28 melanoma; 1.32 µM and 1.51 µM with SR leukemia.
Regarding `COc1ccc2c(c1[N+](=O)[O-])CC[C@@H]1[C@@H]2CC[C@]2(C)C(=O)CC[C@@H]12`, the GI50 in the assay with SNB-75 CNS was 142 µM; in the assay on PC-3 prostate, greater than 684 µM; with SN12C renal, 983 µM; in the assay with SK-MEL-2 melanoma, 275 µM; in the assay on 786-0 renal, greater than 25 µM; with M14 melanoma it was greater than 562 µM. In addition, the GI50 with MCF7 breast was 998 µM; in the assay with TK-10 renal it was 577 µM; with SK-MEL-28 melanoma it was greater than 843 µM; in the assay on SR leukemia it was greater than 25 µM. The TGI in the assay with SNB-75 CNS was > 25 µM and 345 µM; in the assay with SN12C renal, greater than 1000 µM; in the assay on 786-0 renal, greater than 562 µM; in the assay on M14 melanoma, greater than 562 µM; in the assay with MCF7 breast, greater than 1000 µM; with TK-10 renal, greater than 1000 µM. Further, the TGI in the assay with SR leukemia was greater than 1000 µM.
For the compound `C[C@]12CC[C@H]3[C@@H](CCC4=CC(=O)CC[C@@]43C)[C@]1(O)CC[C@]2(O)C(=O)CO`, the TGI in the assay with SNB-75 CNS, in the assay on PC-3 prostate, in the assay on SN12C renal, in the assay with SK-MEL-2 melanoma, with 786-0 renal and with M14 melanoma was greater than 100 µM each time. Also, the TGI in the assay with MCF7 breast, in the assay on TK-10 renal, with SK-MEL-28 melanoma and in the assay with SR leukemia was greater than 100 µM in each case.
Consider `CC(=O)Nc1ccc(CC[C@H]2CCC/C=C/[C@@H]3C[C@H](O)C[C@H]3[C@H](O)/C=C/C(=O)O2)cc1`, for which the GI50 was 0.0446 µM with SNB-75 CNS; 0.353 µM in the assay on PC-3 prostate; 0.333 µM in the assay with SN12C renal; 0.313 µM in the assay with SK-MEL-2 melanoma; 0.0252 µM in the assay with 786-0 renal; 0.153 µM in the assay on M14 melanoma. Also, the GI50 in the assay on MCF7 breast was 0.157 µM; in the assay on TK-10 renal it was 0.172 µM; in the assay on SK-MEL-28 melanoma, 0.0362 µM; in the assay on SR leukemia, 0.215 µM. Besides, the TGI with SNB-75 CNS was greater than 94.7 µM; in the assay with PC-3 prostate it was greater than 100 µM; in the assay with SN12C renal, greater than 100 µM; in the assay on SK-MEL-2 melanoma, 0.963 µM; in the assay with 786-0 renal, 0.0838 µM; in the assay with M14 melanoma it was greater than 100 µM. In addition, the TGI came out at 0.338 µM with MCF7 breast, 1.06 µM with TK-10 renal and 0.197 µM with SK-MEL-28 melanoma.

Values taken from PubChem BioAssay (NCI).
